Values after ≈ are worked out from the molar mass of the structure shown.
What was measured:
Anas platyrhynchos = details: for LD50: oral, mortality
Apis mellifera = details: acute; duration: 48 hours; dermal; mortality
Canidae = details: oral, Dog Other, clinical signs
Colinus virginianus = details: acute, oral, mortality
Daphnia magna = details: chronic/long-term; duration: 21 days; reproduction
Folsomia candida = details: chronic/long-term; duration: 28 days

Molecule CCc1nn(C)c(C(=O)NCc2ccc(C(C)(C)C)cc2)c1Cl [Tebufenpyrad] has an LD50 (Anas platyrhynchos; acute, unspecified) of over 2000 mg/kg-day, an NOEL (Anas platyrhynchos; reproductive) of 6.6 mg/kg-day and an LD50 (Anas platyrhynchos; short-term, feed) of over 75 mg/kg-day. For the same molecule, the LD50 (Apis mellifera) was over 6.7 µg/piece, the NOAEL (Canidae; chronic, duration: 1 years) was 2 mg/kg-day and the NOAEL (Canidae; subchronic, duration: 90 days) was 2 mg/kg-day. The LD50 (Colinus virginianus; diet) was over 439 mg/kg-day, the LD50 (Colinus virginianus) was over 2000 mg/kg-day and the NOEC (Daphnia magna) was 0.0024 mg/L. The NOEC (Folsomia candida) was 9.38 g/ha, the LC50 (Oncorhynchus mykiss; acute, duration: 96 hours, mortality) was 0.03 µg/mL (≈ 0.0899 µM) and the NOEC (Oncorhynchus mykiss; chronic/long-term, duration: 94 days) was 0.00245 mg/L. For the same molecule, the LD50 (Rattus norvegicus; acute, oral, M/F, Fischer 344, mortality) was 320 mg/kg-day, the NOEL (Rattus norvegicus; chronic, body weight) was 8.4 mg/kg-day and the NOAEL (Rattus norvegicus; chronic, duration: 2 years, oral, diet, organ weight) was 0.8 mg/kg-day. It also gave an NOAEL (Rattus norvegicus; reproduction developmental, reproduction) of 15.3 mg/kg-day, an NOAEL (Rattus norvegicus; subchronic, duration: 90 days, oral, organ weight) of 0.7 mg/kg-day and an LC50 (Tagia sp.; acute, duration: 14 days, mortality) of 41 mg/kg. The NOEC (Tagia sp.; chronic/long-term) was 0.66 mg/kg.
